We go through one molecule from patent EP4775219A1, “USE OF VIRUS 3C PROTEASE IN PREVENTION OR TREATMENT OF TUMOR” (Academy of Military Medical Sciences, priority 2023, dated 2025).

The target of series [1] is 3C protein in U87 MG cells (Enterovirus A71, UniProt B9VUU3). The series is classed as cell-based, EV71 or Coxsackievirus A14. On the procedure:
(§1) Rupintrivir (AG7088) is an effective, selective and irreversible 3C protease inhibitor. U87 MG cells and A172 cells were seeded in white-walled clear-bottom 96-well plates at a density of 1.0×10^4 per well, and cultured at 37°C with 5% CO2 for 24 hours. Subsequently, EV-3C-mRNA was diluted with Opti-MEM to final concentrations of 998.4 ng/ml, 499.2 ng/ml, 249.6 ng/ml, 124.8 ng/ml, 62.4 ng/ml, 31.2 ng/ml, and 15.6 ng/ml, and transfected into cells with Lipo2000 liposomes. Compound AG7088 was serially diluted with 2% cell maintenance medium and then added to the 96-well plates to final concentrations of 10µM, 1µM and 0µM, respectively. After 48h, the supernatant was discarded, and the diluted Cell-Titer Glo® Luminescent Cell Viability assay solution was added. The mixture was shaken for 5min in the dark to lyse the cells, followed by standing for 3min. Finally, the luminescence value of each well was measured using a microplate reader. Cell viability (%) = average value of experimental group/average value of cell control group × 100 [formula]
(§2) Data analysis: The inhibition rate-concentration curve was fitted to a sigmoidal curve using Origin9.0 software to calculate the half-maximal effective concentration (EC50) of AG7088 against 3C-mRNA. The half-cytotoxic concentration (CC50) of the compound was calculated using the same method.

The target in series [2] is 3C protein in A172 cells (Enterovirus A71, UniProt B9VUU3). Nature of the series: AG7088 blocking the inhibition of cell viability by EV-3C-mRNA. The series is classed as cell-based, EV71 or Coxsackievirus A14. To be noted: inhibition of the decrease in cell viability caused by 3C-mRNA transfection. On the procedure: as §1, §2
Series [3] in a line: in vitro. Format: cell-based. As to conditions: human. On the procedure: as §2
Series [4] can be described thus: in vitro. As to conditions: human. Format: cell-based. How it is done:
as §2
This is another data set of the same source.

3C protein in U87 MG cells, sequence (B9VUU3 1549-1731, change not shown): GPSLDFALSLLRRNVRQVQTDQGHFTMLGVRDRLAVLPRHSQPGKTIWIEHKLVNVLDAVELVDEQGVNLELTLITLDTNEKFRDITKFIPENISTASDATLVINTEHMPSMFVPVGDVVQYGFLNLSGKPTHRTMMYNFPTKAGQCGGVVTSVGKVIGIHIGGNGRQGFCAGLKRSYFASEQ
3C protein in A172 cells, sequence (B9VUU3 1549-1731, change not shown): as above

Take `CCOC(=O)/C=C/[C@H](C[C@@H]1CCNC1=O)NC(=O)[C@@H](CC(=O)[C@@H](NC(=O)c1cc(C)on1)C(C)C)Cc1ccc(F)cc1` [AG7088, Rupintrivir]: in series [1] (AG7088 1µM + EV-3C-mRNA 31.2 ng/ml, 48h), the “Viability of U87 cells (%)” value was determined as 95.64±2%. Moreover, the half-inhibitory concentration (IC50) (commonly the point on the concentration scale where inhibition reaches its midpoint) in series [1] (inhibition of the decrease in cell viability caused by 3C-mRNA transfection, U87 MG cells) worked out at 1.15 ± 0.19 µM; in series [2], 0.439 ± 0.03 µM. Moreover, the cytotoxic concentration (CC50) in series [3] and in series [4] was over 100 µM in each case.
